From US20220380375A1, “SUBSTITUTED AROMATIC FUSED RING DERIVATIVE AND COMPOSITION COMPRISING SAME, AND USE THEREOF” (Shenzhen TargetRx, Inc., priority 2019, published 2022)
Marks after values point to notes of the source that are not given here.

Legend:
Ret wt = target: T1, Ret wt (Homo sapiens, UniProt P07949); assay: Inhibition of kinase, Ret wt (HTRF KinEASE-TK); type: biochemical
T1 construct: purchased Carna 08-159-10 ug
Method: (§1) Ret wt (Carna, Cat. No. 08-159-10 ug), RET (V804M), Active (Signalchem. Cat. No. R02—12GG), HTRF KinEASE-TK kit (Cisbio, Cat. No.62TK0PEC), CEP-32496 (MCE, Cat. No. HY-15200), ATP (Sigma. Cat. No. A7699), DMSO (Sigma, Cat. No. D8418-1L), DTT (Sigma, Cat. No. D0632), MgCl2(Sigma, Cat. No. M1028), 384-well plate (Labcyte, Cat. No. P-05525-BC).
(§2) Formulation of compound: The test compounds were dissolved in DMSO to obtain 10 mM stock solutions, which were then serially diluted 3-fold in DMSO to obtain 10 concentrations. At the time of addition, the compound was further diluted 10-fold with buffer.
(§3) In 5×kinase buffer A, Ret wt or RET V804M kinase was mixed with different concentrations of compounds prepared by pre-dilution for 10 minutes. Each concentration was tested in duplicate. The corresponding substrate and ATP were added, and reaction was performed at room temperature for 20 minutes (negative and positive controls were provided: the negative control was a blank control, and the positive control was CEP-32496 (Agerafenib)). After completion of the reaction, detection reagents (reagents in the HTRF KinEASE-TK kit) were added. After incubating for 30 minutes at room temperature, enzyme activity in the presence of various concentrations of the compounds of the present disclosure was determined by Envision microplate reader, and inhibitory activity of different concentrations of the compounds on enzyme activity was calculated. The inhibitory activity of different concentrations of the compounds on enzyme activity was fitted by Graphpad 5.0 software, and the IC50 value was calculated.

RET V804M = target: T2, RET V804M (Homo sapiens, UniProt P07949, V804M); assay: Inhibition of kinase, RET V804M (HTRF KinEASE-TK); type: biochemical
T2 construct: purchased Signalchem R02—12GG
Method: as §1, §2, §3

[1] = Safety assay (body weight, tolerability) in Ba/F3 KIF5B-RET cell line tumor model; type: in vivo; settings: for Number of animals at the beginning/end of assay: 10 mg/kg p.o. QD × 14; for Average weight g (x ± S), Day 0 of administration: 10 mg/kg p.o. QD × 14, day 0 (baseline); for Average weight g (x ± S), Day 14 of administration / Weight change rate (%), Day 14 of administration: 10 mg/kg p.o. QD × 14, day 14; for tolerability (weight loss, drug withdrawal, drug toxicity): during the treatment
Method: (§4) Assay methods: 1) Ba/F3 KIF5B-RET and Ba/F3 KIF5B-RET^G810R cells were respectively resuscitated and Cultured in vitro, and 3×10^7 cells of each type were obtained. 2) 60 female NPSG mice aged 6-8 weeks were adaptively bred for 1 week and then weighed. 4) After inoculation, tumor volume and body weight were measured once a week. When average tumor volume reached about […], mice inoculated with each type of Ba/F3 cells were randomly divided into 7 groups according to tumor volume and body weight, with 3 mice in each group. The administration was started immediately after grouping. The date of start of administration was regarded as day 0. Informations on administration and grouping were shown in Tables 5 and 6.5) After the start of the administration, the body weight and tumor volume of mice were measured twice a week. 6) After the end of the administration, the assay was over.
(§5) Assay observation and data collection: After tumor inoculation, morbidity and death of animals were observed every working day. Daily observation included tumor growth and effects of drugs on laboratory animals, such as changes in activity, changes in feeding and drinking, weight loss, changes in appearance of hair and eye, death and other clinical symptoms. Formula for calculating tumor volume is: tumor volume (mm^3)=½×(a×b^2) (wherein a represents the long diameter and b represents the short diameter)

[2] = Safety assay (body weight, tolerability) in Ba/F3 KIF5B-RET^G810R cell line tumor model; type: in vivo; settings: for Number of animals at the beginning/end of assay: 25 mg/kg p.o. QD × 13; for Average weight g (x ± S), Day 0 of administration: 25 mg/kg p.o. QD × 13, day 0 (baseline); for Average weight g (x ± S), Day 13 of administration / Weight change rate (%), Day 13 of administration: 25 mg/kg p.o. QD × 13, day 13; for tolerability (weight loss, drug withdrawal, drug toxicity): during the treatment
Method: as §4, §5

[3] = tested on: Ba/F3 KIF5B-RET cell line tumor model; assay: Anti-tumor effect assay in Ba/F3 KIF5B-RET cell line tumor model (allograft); type: in vivo, female NPSG mice; settings: for Tumor volume (x ± S), Day 0 of administration: 10 mg/kg p.o. QD × 14, day 0 (baseline); for TGI (%), Day 14 of administration / Tumor volume (x ± S), Day 14 of administration: 10 mg/kg p.o. QD × 14, day 14
Text: (§6) The efficacy of compounds of the present disclosure in female NPSG mouse allograft models of two B-cell lymphoma cell lines Ba/F3 KIF5B-RET and Ba/F3 KIF5B-RET^G810R was verified.
(§7) Assay animals: Female NPSG mice, 6-8 weeks old (age of mice at the time of tumor cell inoculation), weighing 18-20 g, 60 mice, purchased from Shanghai Jihui Laboratory Animal Care Co., Ltd.
as §4, §5
(§8) Relative tumor inhibition rate TGI (%): TGI %=(1−T/C)×100%. T/C % is relative tumor proliferation rate, that is, a percentage value of relative tumor volume between treatment group and control group at a certain point in time. T and C are relative tumor volume (RTV, that is, the […] tumor volume at this time point and tumor volume at day 0) of treatment group and control group at a certain point in time, respectively.
(§9) Statistical analysis: For pairwise comparison, a T-Test analysis method was used, and for comparison of three or more groups, a One-Way ANOVA method was used. For comparison of potential synergistic effects, a Two-way ANOVA was used. SPSS 24.0 was used for all data. A p value less than 0.05 was considered a significant difference.

[4] = tested on: Ba/F3 KIF5B-RET^G810R cell line tumor model; assay: Anti-tumor effect assay in Ba/F3 KIF5B-RET^G810R cell line tumor model (allograft); type: in vivo, female NPSG mice; settings: for Tumor volume (x ± S), Day 0 of administration / Tumor volume (x ± S), Day 13 of administration / TGI (%), Day 13 of administration: Ba/F3 KIF5B-RET^G810R model; for Tumor volume (x ± S), Day 0 of administration: 25 mg/kg p.o. QD × 13, day 0 (baseline); for Tumor volume (x ± S), Day 13 of administration / TGI (%), Day 13 of administration: 25 mg/kg p.o. QD × 13, day 13; for TGI (%), Day 13 of administration: TGI more than 100% = decrease in tumor volume; for relative tumor inhibition rate TGI (%): day 13 of administration, AD80 group 25 mg/kg
Text: as §6, §7, §4, §5, §8, §9

T2 sequence (P07949 29-1114 V804M): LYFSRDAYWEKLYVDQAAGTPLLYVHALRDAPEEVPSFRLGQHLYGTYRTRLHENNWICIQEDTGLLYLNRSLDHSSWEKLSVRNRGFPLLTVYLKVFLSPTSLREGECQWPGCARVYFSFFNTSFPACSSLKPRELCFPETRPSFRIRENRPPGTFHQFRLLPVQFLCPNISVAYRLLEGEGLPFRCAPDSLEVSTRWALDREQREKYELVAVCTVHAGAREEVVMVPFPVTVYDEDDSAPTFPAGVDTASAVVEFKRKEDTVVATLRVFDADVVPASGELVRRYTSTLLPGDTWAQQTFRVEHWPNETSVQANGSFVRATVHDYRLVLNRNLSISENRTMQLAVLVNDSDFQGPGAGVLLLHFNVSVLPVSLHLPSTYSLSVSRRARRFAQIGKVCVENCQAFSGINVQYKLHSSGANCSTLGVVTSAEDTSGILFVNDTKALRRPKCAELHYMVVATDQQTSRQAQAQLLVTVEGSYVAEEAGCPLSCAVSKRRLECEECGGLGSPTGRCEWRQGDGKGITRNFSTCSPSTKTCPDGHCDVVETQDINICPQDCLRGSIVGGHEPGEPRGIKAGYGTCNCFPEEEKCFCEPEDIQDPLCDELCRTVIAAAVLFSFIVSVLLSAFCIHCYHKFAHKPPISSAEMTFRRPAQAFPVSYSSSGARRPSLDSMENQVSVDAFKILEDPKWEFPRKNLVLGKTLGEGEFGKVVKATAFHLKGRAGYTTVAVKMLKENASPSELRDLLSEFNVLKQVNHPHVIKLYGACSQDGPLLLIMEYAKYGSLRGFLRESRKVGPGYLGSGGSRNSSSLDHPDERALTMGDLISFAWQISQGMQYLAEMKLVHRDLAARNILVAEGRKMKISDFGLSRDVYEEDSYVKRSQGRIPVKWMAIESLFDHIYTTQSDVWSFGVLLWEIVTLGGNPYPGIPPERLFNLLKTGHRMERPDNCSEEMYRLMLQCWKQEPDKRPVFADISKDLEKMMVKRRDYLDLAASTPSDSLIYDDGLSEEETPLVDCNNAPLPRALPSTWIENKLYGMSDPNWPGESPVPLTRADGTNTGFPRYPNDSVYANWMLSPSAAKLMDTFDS
T1 sequence (P07949 29-1114): as the sequence (P07949 29-1114 V804M) above, with M776V counted along it

Structure (SMILES)	IC50 (Ret wt) [nM]	IC50 (RET V804M) [nM]	Number of animals at the beginning/end of assay [1]	Average weight g (x ± S), Day 0 of administration [1] [g]	Average weight g (x ± S), Day 14 of administration [1] [g]	Weight change rate (%), Day 14 of administration [1] [%]	tolerability (weight loss, drug withdrawal, drug toxicity) [1]	Number of animals at the beginning/end of assay [2]	Average weight g (x ± S), Day 0 of administration [2] [g]	Average weight g (x ± S), Day 13 of administration [2] [g]	Weight change rate (%), Day 13 of administration [2] [%]	tolerability (weight loss, drug withdrawal, drug toxicity) [2]	Tumor volume (x ± S), Day 0 of administration [3] [mm^3]	TGI (%), Day 14 of administration [3] [%]	Tumor volume (x ± S), Day 14 of administration [3] [mm^3]	Tumor volume (x ± S), Day 0 of administration [4] [mm^3]	Tumor volume (x ± S), Day 13 of administration [4] [mm^3]	TGI (%), Day 13 of administration [4]	relative tumor inhibition rate TGI (%) [4] [%]
CC(C)n1nc(-c2ccc(NC(=O)Nc3cc(C(C)(C)C(F)(F)F)on3)cc2)c2c(N)ncnc21 [Compound T-2, 1-(4-(4-amino-1-isopropyl-1H-pyrazolo[3,4-d]pyrimidin-3-yl)phenyl)-3-(5-(1,1,1-trifluoro-2-methylprop-2-yl)isoxazol-3-yl)urea]	≤ 0.5	1 to 10	3/3	20.1 ± 0.56	21.7 ± 0.59	8.1	well tolerated	3/3	19.6 ± 0.47	21.7 ± 0.74	11.05	well tolerated	102 ± 5.51	63.9	588.7 ± 25.3	94.3 ± 3.84	150.7 ± 4.33	84.6%	84.6
CC(C)c1nc(-c2ccc(CC(=O)Nc3cc(C(C)(C)C(F)(F)F)on3)cc2)c2c(N)nccn12 [Compound T-4, 2-(4-(8-amino-3-isopropylimidazo[1,5-a]pyrazin-1-yl)phenyl)-N-(5-(1,1,1-trifluoro-2-methylprop-2-yl)isoxazol-3-yl)acetamide]	≤ 0.5	1 to 10																	
CC(C)n1cc(-c2ccc(CC(=O)Nc3cc(C(C)(C)C(F)(F)F)on3)cc2)c2c(N)ncnc21 [Compound T-3, 2-(4-(4-amino-7-isopropyl-7H-pyrrolo[2,3-d]pyrimidin-5-yl)phenyl)-N-(5-(1,1,1-trifluoro-2-methylprop-2-yl)isoxazol-3-yl)acetamide]	≤ 0.5	1 to 10	3/3	19.6 ± 0.84	21.5 ± 0.7	9.8	well tolerated	3/3	19.9 ± 1.18	23.1 ± 1.49	16.01	well tolerated	104 ± 10.44	96.3	153.7 ± 13.22	102 ± 7.77	132.7 ± 11.78	91.6%	91.6
[2H]C([2H])([2H])C(n1cc(-c2ccc(CC(=O)Nc3cc(C(C)(C)C(F)(F)F)on3)cc2)c2c(N)ncnc21)C([2H])([2H])[2H] [Compound T-12, 2-(4-(4-amino-7-(propen-2-yl-1,1,1,3,3,d6)-7H-pyrrolo[2,3-d]pyrimidin-5-yl)phenyl)-N-(5-(1,1,1-trifluo-2-methylpropan-2-yl)isoxazol-3-yl)acetamide]	10 to 50	1 to 10																	
[2H]C([2H])([2H])C(n1nc(-c2ccc(CC(=O)Nc3cc(C(C)(C)C(F)(F)F)no3)cc2)c2c(N)ncnc21)C([2H])([2H])[2H] [Compound T-11, 2-(4-(4-amino-1-(propan-2-yl-1,1,1,3,3,3-d6)-1H-pyrazolo[3,4-d]pyrimidin-3-yl)phenyl)-N-(3-(1,1,1-trifluoro-2-methylpropan-2-yl)isoxazol-5-yl)acetamide]	1 to 10	1 to 10																	
CC(C)n1nc(-c2ccc(CC(=O)Nc3cc(C(C)(C)C(F)(F)F)no3)cc2)c2c(N)ncnc21 [Compound T-8, 2-(4-(4-amino-1-isopropyl-1H-pyrazolo[3,4-d]pyrimidin-3-yl)phenyl)-N-(3-(1,1,1-trifluoro-2-methylprop-2-yl)isoxazol-5-yl)acetamide]			3/3	20.5 ± 1.07	21.7 ± 0.82	6.0	well tolerated	3/3	19.6 ± 0.32	22.5 ± 0.73	14.40	well tolerated	101.3 ± 4.33	95.4	163.7 ± 19.74	96.7 ± 6.74	90.7 ± 8.41	101.6%#	101.6
CC(C)n1nc(-c2ccc(CC(=O)Nc3cc(C(C)(C)C(F)(F)F)on3)cn2)c2c(N)ncnc21 [Compound T-7, 2-(6-(4-amino-1-isopropyl-1H-pyrazolo[3,4-d]pyrimidin-3-yl)pyridin-3-yl)-N-(5-(1,1,1-trifluoro-2-methylprop-2-yl)isoxazol-3-yl)acetamide]	1 to 10	1 to 10																	
CC(C)n1nc(-c2ccc(NC(=O)Nc3cc(C(F)(F)F)ccc3F)cc2)c2c(N)ncnc21 [AD80, reference compound]			3/3	20.1 ± 0.81	22.6 ± 0.87	12.7	well tolerated	3/3	19.9 ± 0.44	20.7 ± 1.53	4.14	well tolerated	100.3 ± 4.33	46.4	821.7 ± 54.5	94.7 ± 5.24	185.7 ± 33.65	75.2%	75.2
